Results as given in US9669016B2, “Antiparasitic effect of Bis[3,5-Bis(Benzylidene)-4-Oxo-1-Piperidinyl]amide Derivatives” (priority 2014, dated 2017).
Read-outs that look alike come from different tables or passages of the source.

Legend:
[1] = test system: BALB/c mice intraperitoneal macrophages; assay: Annexin V/PI assay on intraperitoneal macrophages; format: cell-based, mouse
Description: (§1) Apoptosis was evaluated using Alexa Fluor® 488 Annexin V/PI Apoptosis Kit (Initrogen™-Life technology, Grand Island, N.Y.). L. major promastigotes and BALB/c mice intraperitoneal macrophages were treated with each compound for 24 h. After exposure, the parasites (5×10^7) and macrophages (5×10^6) were harvested, washed and re-suspended with PBS. The Annexin V/PI staining of cells followed the manufacturer's instructions. Then the samples were analyzed with Beckman Coulter Fc500 flow cytometer (Beckman Coulter, USA). The results were expressed as the number of annexin positive cells per thousand cells counted.

[2] = test system: T. cruzi intracellular amastigotes; assay: High-content imaging infectivity assay, T. cruzi amastigote-infected human osteoblasts; format: cell-based, Trypanosoma cruzi; conditions: for IC50: Trypanosoma cruzi, Osteoblast; for parasite burden / percentage of infected cells, T. cruzi infected mammalian cells: human osteoblasts, 48 h
Description: Human osteoblasts were infected with T. cruzi trypomastigotes and were treated with each compound at multiple concentrations for 48 hours.
In vitro evaluation of the NC drug library on infectivity experiments by high-content imaging assay. Mice intraperitoneal macrophages and human osteoblasts were placed in a microplate and infected with the amastigote forms of L. major strain Friedlin clone V1 and T. cruzi Y strain respectably, followed by treatment with NC lead compounds (as shown in Table 1). Briefly, Image acquisition and analyses of the plates were carried out using the BD Pathway 855 high-resolution fluorescence bioimager system (BD Biosciences). Filter sets appropriate for the excitation and emission spectra of Draq5 were utilized. Images from […] (3×3 montage) were acquired per well with a 20× objective. To perform the host cell segmentation and counting of parasites, the BD AttoVision™ v1.6.2 Sub Object analysis was used. Draq5 creates a background, staining the host cell and parasite nucleus, but defining the cytoplasm as well, determining this way the amount of parasites within each mammalian cell. The host cell nucleus was excluded by size difference. Subsequently, the infection index was calculated based on the mean of these triplicate values by multiplying the percentage of infected cells and the constraints used in the HCIA assay that was of 2, 3, 5, and 8 parasites per cell.

L. major promastigotes [3] = assay: Mitoprobe JC-1 mitochondrial membrane potential assay; format: cell-based, Leishmania major; conditions: three concentrations, four hours
Description: L. major promastigotes and intraperitoneal macrophages from BALB/c mice were treated with each compound at three concentrations for four hours. Then, cells were stained with 2 μM of the fluorophore 5,5′,6,6′-tetrachloro-1,1′,3,3′-tetraethylbenzimidazolylcarboncyanine iodide (JC-1) following a modified version of manufacturer's instruction (Life Technologies, Grand Island, N.Y.). The disruption of mitochondrial Δψm is evidenced by an appreciable shift of the fluorescence signal from red to green. JC-1 aggregates or monomers, emitting red or green signal, were identified via flow cytometer (Cytomics Fc500) by using FL-2 or FL-1 detectors, respectively. A proton ionophore that dissipates the mitochondrial Δψm carbonyl cyanide 3-chlorophenylhydrazone (CCCP) at 50 μM, was used as a positive control. Cells treated with the diluent of the compounds (DMSO) and untreated were used as negative controls. Data collection and analysis was performed by using CXP software (Beckman Coulter). JC-1 is the most widely applied method for detecting mitochondrial depolarization occurring in the early stages of apoptosis.

[4] = Weight and toxicity monitoring in treated infected mice; format: in vivo, BALB/c mice; conditions: for deaths as a result of compound toxicity / weight loss: 10^5 infection experiment; for weight loss: daily IP treatment
Description: The in vivo experiments were comprised of four groups of five mice each: (1) infected, but not treated [control for the infection—100 μL of DMSO per day, drug diluent]; (2) treated with NC884, NC901 or NC2459, but not infected with the parasites [control for drug toxicity]; (3) infected with the parasites and treated with amphotericin B (8 mg/kg/day) [reference drug; positive control]; and (4) infected with the parasites and treated with NC884, NC901 or NC2459 [experimental group]. Luciferase expressing metacyclic promastigotes L. major (Freidlin V1) were obtained as described previously. Suspensions of 1×10^5 or 1×10^6 parasites per 50 μl of sterile DMEM (endotoxin-free) were injected with a 30G needle into the left hind footpad of BALB/c mice. Two weeks post-infection the compounds were administered once a day by intraperitoneal route, daily for 14 to 17 days. Twice a week, weights were recorded to monitor toxicity and the thickness of the infected footpad and the non-infected footpad was measured with digital calipers to monitor the progression of the disease. The parasitic load also was evaluated through in vivo imaging using luminescence (Kodak Image Station). The mice were injected intra-peritoneally with 150 mg/kg D-luciferin (Sigma, USA) 10 min before imaging, anesthetized with 1-2% isofluorane in oxygen during imaging and the net intensity emitted from the footpad was quantified using the KODAK Image Station software. Parasite burden was expressed as net intensity emitted from L. major infected footpad lesions normalized against the background fluorescence of uninfected mice. The presence/absence of parasites was confirmed by PCR using L. major methionine aminopeptidase (MetAP1) 1 specific primers: 5′-[…]-3′ (SEQ ID NO:1) and 5′-[…]-3′ (SEQ ID NO:2) on cDNA reverse transcribed from total RNA extracted from footpad lysate obtained by macerating footpad tissue fragments in Trizol (Invitrogen Life Technologies, United States) with the gentleMACS™ Dissociator (Miltenyi Biotec GmbH, Germany) following the manufacturer's protocol.

L. major promastigotes [5] = assay: Annexin V/PI assay on L. major promastigotes; format: cell-based, Leishmania major; conditions: 24 h; NC901 2.5 μM, NC884 2.5 μM, NC2459 312 nM
Description: as §1

[6] = test system: BALB/c intraperitoneal macrophages; assay: Viability assay (Alamar Blue) on peritoneal murine macrophages; format: cell-based; conditions: Mus musculus, Macrophage; read-out: Mammalian cells IC50 ± SD, Peritoneal Murine Macrophages
Description: Viability assay on mammalian cells and T. cruzi epimastigotes. The cytotoxicity and anti-trypanosomal activity of the NC compounds was tested in human Hs27 fibroblasts (ATCC CRL-1634), LLC-MK2 cells (ATCC CCL-7), RAW 264.7 murine macrophages (ATCC TIB71) (American Type Culture Collection-ATCC, Manassa, Va.), mice intraperitoneal macrophages and in epimastigote forms of T. cruzi Y strain using Alamar Blue assay (Invitrogen—Life Technology, Grand Island, N.Y.). The experiments were performed as described using a range of concentration of 500 μM to 1 nM.

[7] = same concentrations as in L. major promastigotes, 24 h
[8] = in human osteoblasts, 48 h treatment, read-out: T. cruzi Intracellular Amastigotes IC50

CN(C)CC1CCC(CN(C)C)C1=O (centres unmarked) [NC884]
annexin V positive cells in macrophages [1, 7]: No effect
IC50 [2, 8]: 987 ± 110 nM
parasite burden / percentage of infected cells, T. cruzi infected mammalian cells ([2]; 3 or more amastigotes per cell): significantly reduced the parasite burden
mitochondrial membrane potential (Δψm) vs 1% DMSO (L. major promastigotes [3]): concentration dependent loss in Δψm
deaths as a result of compound toxicity [4]: no mice died
weight loss [4]: no significant weight loss
annexin V binding (apoptosis-like effect) vs 1% DMSO (L. major promastigotes [5]): significantly induced an apoptosis-like effect
IC50 [6]: 7670 ± 310 nM

CN(C)CC1CCCC(CN(C)C)C1=O (centres unmarked) [NC901]
annexin V positive cells in macrophages [1]: No effect
IC50 [2, 8]: 301 ± 90 nM
parasite burden / percentage of infected cells, T. cruzi infected mammalian cells ([2]; 3 or more amastigotes per cell): significantly reduced the parasite burden
mitochondrial membrane potential (Δψm) vs 1% DMSO (L. major promastigotes [3]): concentration dependent loss in Δψm
deaths as a result of compound toxicity [4]: no mice died
weight loss [4]: no significant weight loss
annexin V binding (apoptosis-like effect) vs 1% DMSO (L. major promastigotes [5]): significantly induced an apoptosis-like effect
IC50 [6]: 7030 ± 420 nM

O=C1/C(=C/c2ccccc2)CN(C(=O)C(=O)N2C/C(=C\c3ccccc3)C(=O)/C(=C/c3ccccc3)C2)C/C1=C\c1ccccc1 [NC2459]
annexin V positive cells in macrophages [1, 7]: No effect
IC50 ([2]; 48 hours, 3 or more amastigotes per cell, read-out: IC50, T. cruzi amastigote-infected human osteoblasts): 227 nM
IC50 [2, 8]: 227 ± 40 nM
parasite burden / percentage of infected cells, T. cruzi infected mammalian cells ([2]; 3 or more amastigotes per cell): significantly reduced the parasite burden
mitochondrial membrane potential (Δψm) vs 1% DMSO (L. major promastigotes [3]): concentration dependent loss in Δψm
deaths as a result of compound toxicity [4]: no mice died
weight loss [4]: no significant weight loss
additional weight loss or toxic side effects compared to the control group ([4]; 10^6 infection, 8 mg/kg/day extended treatment): did not result in any additional weight loss or toxic side effects
annexin V binding (apoptosis-like effect) vs 1% DMSO (L. major promastigotes [5]): significantly induced an apoptosis-like effect
IC50 [6]: 5450 ± 360 nM
